In patent US20250032425A1, “FIRST IN CLASS USE OF ESTROGEN RECEPTOR BETA AGONISTS IN TREATING ANGELMAN SYNDROME AND RELEVANT AUTISM SPECTRUM DISORDERS” (BROWN UNIVERSITY, priority 2023, published 2025):
“Also recorded” adds a separate entry of the source.

Assays:
[1] = tested on: ERK/MAPK signaling pathway; test: ERK/MAPK and S6 activation in iOPCs by immunoblotting (phosphorylated to total ratio); type: cell-based, human
Text: FIGS. 20A-20E depict the identification of ESR-β signaling pathway in regulating OPC proliferation impaired by UBE3A depletion. FIG. 20A: Immunofluorescence to track estrogen receptor (ESR) expression in OPCs, by staining of all 3 ESRs, ESR-α, ESR-β and GPER (top panels), in iOPCs co-labeled with UBE3A (middle panels) and DAPI; scale bar, 100 μm. […] FIG. 20B: Immunoblotting to assess OPC expression of individual ESRs, by analyzing protein levels of ESR-α, ESR-β and GPER in iOPCs treated with siNC or siUBE3A, normalized to GAPDH and expressed relative to the siNC condition (set as 1.0). After treatment with siUBE3A, expression of ESR-β was decreased, while expression of GPER was increased. n=5-6 experiments. FIG. 20C: The activation of the ERK/MAPK signaling pathway in OPCs, particularly downstream of ESR-β, was analyzed in iOPCs subjected to 6 knockdown conditions: siNC, siUBE3A, siESRα, siESRβ, and combinations of siUBE3A with siESRα or siESRβ. These were followed by treatment with vehicle control or the ESR-β agonist AC-186 (10 μM, 30 min). The activation of ERK and its substrate S6 was determined by the ratio of phosphorylated to total ERK and S6 levels, adjusted relative to the vehicle control group (standard value of 1.0). ERK phosphorylation and S6 phosphorylation was decreased in cells treated with siESRβ, or siESRβ and siUBE3A combined. n=3 experiments. FIG. 20D: Immunoblotting to evaluate the role of ERK/MAPK activation in the restoration of OPC proliferation following ESR-β activation, with the addition of ERK phosphorylation inhibitors U0126 or PD98059 to UBE3A-depleted OPCs, with or without AC-186 co-treatment (10 μM. 24 hours). The quantification of Ki67 expression and UBE3A levels, being normalized to β-tubulin (TUBB1) and compared to the siNC condition (value of 1.0). n=5 experiments. FIG. 20E: A schematic depicting the regulatory role of ESR-β signaling pathway in OPC proliferation, identified by combining genetic knockdown techniques and pharmacological interventions. Activation of ESR-β selectively triggers the ERK/MAPK pathway, as shown by ERK phosphorylation and the ERK substrate S6 activation, essential for cell proliferation. […] As applicable: statistical significance was determined using One-way ANOVA followed by post-hoc comparisons, with selected comparisons presented. Significance levels marked as *p<0.05. ** p<0.005. *** p<0.001. **** p<0.0001, ns not significant, across relevant comparisons.
The siRNAs targeting UBE3A (Thermo Fisher, #4390815 and #4390816), estrogen receptors (Thermo Scientific #145909 for ESRβ, #145539 for ESRα, and #4390824 for GPER), and negative control (Thermo Scientific, #AM4615) were obtained commercially. The 10-20 nM final concentration was used with Lipofectamine RNAiMAX transfection reagent (Thermo Scientific #13778075) and incubated for at least 48 hours before the treatments of therapeutic compounds or other reagents.
Cells were collected by fast spin down in centrifuge tubes before lysis in RIPA buffer (ThermoFisher, #89901) supplemented with proteinase inhibitor cocktail (Sigma-Aldrich, #5892791001) on ice. Lysates were then spun down at 15000 rpm for 10 mins, the supernatant was collected and mixed with 4× Laemmle sample buffer (Bio-Rad, #1610747) and cooked 10 mins before SDS-PAGE and transferred with Bio-Rad fast transfer system, the membranes were blocked for one hour in 1× Tris Buffered Saline (TBS) with 1% Casein buffer (Bio-Rad, #1610782) and incubated with primary antibodies overnight at 4 degrees. After 3 times washing in TBST washing buffers (ThermoFisher, #28352), the membranes were incubated with HRP conjugated antibodies and developed with Clarity Max™ Western ECL Substrate (Bio-Rad, #1705062) before being filmed in the iBright imaging system.

[2] = tested on: Angelman syndrome (AS) mice; test: Hindlimb Clasping test in AS mice; type: in vivo, mouse
Procedure: Animal handling and experimental use strictly followed NIH guidelines and protocols approved by the local Institutional Animal Care and Use Committee (IACUC) of Brown University. In all experiments, Mice were age and gender-matched. Multiple liters were used for all experiments. Weaned mice, housed in groups of two to four per cage, were maintained on a 12-h light/dark cycle with food and water ad libitum.
ESRβ agonist AC-186 treatment in vivo. 10 mg/kg AC-186 was daily IP delivered after dissolved at high concentration (30 mg/ml) in DMSO and further diluted in 20% PEG300. Vehicle groups received the same volume and concentration of diluted DMSO in 20% PEG300. Treatment started at P13 and continued until mice were sacrificed at P42.
The Hindlimb Clasping test, which was administered as delineated in a prior study, Guyenet et al., 2010 (A simple composite phenotype scoring system for evaluating 10 mouse models of cerebellar ataxia. J Vis Exp.), is a neurological evaluation that involves the temporary suspension of mice to observe their hindlimb reflexes, a reliable indicator of central nervous system pathology. This method involves a 10-second observation period during which the mice's hindlimb positions are closely monitored and scored. […]

[3] = UBE3A-depleted iOPCs, AC-186 10 μM, 30 min

## Oc1ccc(C2(c3ccccc3F)CCC(F)(F)CC2)cc1 [AC-186]
[1]; [3]
  UBE3A levels: remained unchanged
  activity of ERK: restored
  activity of S6: restored
[1]; siESRα
  effects on ERK/MAPK activation when ESR-α was knocked down: did not reverse the effects of AC-186
[1]; siESRβ
  effects on ERK/MAPK activation when ESR-β was knocked down: negated
[2]; AS mice, 10 mg/kg daily IP from P13-14, vs AS vehicle, 10 mg/kg
  Hindlimb clasping score: significantly alleviated neurological symptoms; also recorded: decreased
[2]; wildtype mice, 10 mg/kg daily IP
  Hindlimb clasping score: without affecting wildtype mice
